Reference: ChEMBL document CHEMBL3885861, “Open TG-GATES”

Species: Rattus norvegicus
Assay: Open TG-GATES - Regimen: Single
Assay type: toxicity, organism-based, Sprague-Dawley
Set-up: regimen Single, gender Male, age 6 weeks
Settings: in vivo, po, 10 mg/kg, route gavage, dose level Low; for APTT / Bas / Eos / Fbg / Hb / Ht / Lym / MCH / MCHC / MCV / Mono / Neu / PT / Plat / RBC / Ret / WBC: tissue Blood; for A/G / ALP / ALT / AST / BUN / CRE / Ca / Cl / DBIL / GLC / IP / K / LDH / Na / PL / RALB / TBIL / TC / TG / TP / gamma-GTP: tissue Plasma

**Q.** For `Cn1cc[nH]c1=S` [METHIMAZOLE], which TERMINAL_BW (3 h) is on record?
**A.** 213.6 g

**Q.** What about the APTT (3 h) of the same compound?
**A.** 21.5 s

**Q.** What about the Bas (3 h) of the same compound?
**A.** 0%

**Q.** And the Eos (3 h)?
**A.** 0.4%

**Q.** And the Fbg (3 h)?
**A.** 291.6 mg/dL

**Q.** What about the Hb (3 h) of the same compound?
**A.** 13.5 g/dL

**Q.** And the Ht (3 h)?
**A.** 38.3%

**Q.** And the Lym (3 h)?
**A.** 81.6%

**Q.** What about the MCH (3 h) of the same compound?
**A.** 22.1 pg

**Q.** And the MCHC (3 h)?
**A.** 35.3%

**Q.** What about the MCV (3 h) of the same compound?
**A.** 62.6 fL

**Q.** And the Mono (3 h)?
**A.** 2%

**Q.** What about the Neu (3 h) of the same compound?
**A.** 15.2%

**Q.** And the PT (3 h)?
**A.** 15.4 s

**Q.** What about the Plat (3 h) of the same compound?
**A.** 123.9 x10_4/uL

**Q.** And the RBC (3 h)?
**A.** 611.8 x10_4/ul

**Q.** And the Ret (3 h)?
**A.** 8.4%

**Q.** What about the WBC (3 h) of the same compound?
**A.** 93.7 x10_2/uL

**Q.** And the A/G (3 h)?
**A.** 1.3

**Q.** And the ALP (3 h)?
**A.** 1742.6 IU/L

**Q.** And the ALT (3 h)?
**A.** 42 IU/L

**Q.** What about the AST (3 h) of the same compound?
**A.** 72.4 IU/L

**Q.** And the BUN (3 h)?
**A.** 13.8 mg/dL

**Q.** What about the CRE (3 h) of the same compound?
**A.** 0.1 mg/dL

**Q.** And the Ca (3 h)?
**A.** 10.6 mg/dL

**Q.** What about the Cl (3 h) of the same compound?
**A.** 106.6 meq/L

**Q.** What about the DBIL (3 h) of the same compound?
**A.** 0 mg/dL

**Q.** What about the GLC (3 h) of the same compound?
**A.** 179 mg/dL

**Q.** And the IP (3 h)?
**A.** 8.9 mg/dL

**Q.** And the K (3 h)?
**A.** 4.2 meq/L

**Q.** And the LDH (3 h)?
**A.** 206 IU/L

**Q.** What about the Na (3 h) of the same compound?
**A.** 141.2 meq/L

**Q.** What about the PL (3 h) of the same compound?
**A.** 141.4 mg/dL

**Q.** And the RALB (3 h)?
**A.** 3 g/dL

**Q.** What about the TBIL (3 h) of the same compound?
**A.** 0.006 mg/dL

**Q.** What about the TC (3 h) of the same compound?
**A.** 77 mg/dL

**Q.** What about the TG (3 h) of the same compound?
**A.** 74.4 mg/dL

**Q.** And the TP (3 h)?
**A.** 5.4 g/dL

**Q.** What about the gamma-GTP (3 h) of the same compound?
**A.** 1.2 IU/L

**Q.** And the TERMINAL_BW (6 h)?
**A.** 213.5 g

**Q.** And the APTT (6 h)?
**A.** 20.7 s

**Q.** What about the Bas (6 h) of the same compound?
**A.** 0%

**Q.** What about the Eos (6 h) of the same compound?
**A.** 1%

**Q.** What about the Fbg (6 h) of the same compound?
**A.** 279.8 mg/dL

**Q.** And the Hb (6 h)?
**A.** 13.6 g/dL

**Q.** And the Ht (6 h)?
**A.** 38.5%

**Q.** What about the Lym (6 h) of the same compound?
**A.** 78.2%

**Q.** What about the MCH (6 h) of the same compound?
**A.** 21.7 pg

**Q.** And the MCHC (6 h)?
**A.** 35.2%

**Q.** What about the MCV (6 h) of the same compound?
**A.** 61.8 fL

**Q.** What about the Mono (6 h) of the same compound?
**A.** 2.2%

**Q.** And the Neu (6 h)?
**A.** 18%

**Q.** And the PT (6 h)?
**A.** 16.1 s

**Q.** And the Plat (6 h)?
**A.** 103 x10_4/uL

**Q.** What about the RBC (6 h) of the same compound?
**A.** 624.6 x10_4/ul

**Q.** What about the Ret (6 h) of the same compound?
**A.** 8.8%

**Q.** What about the WBC (6 h) of the same compound?
**A.** 85.4 x10_2/uL

**Q.** And the A/G (6 h)?
**A.** 1.2

**Q.** What about the ALP (6 h) of the same compound?
**A.** 1761.8 IU/L

**Q.** What about the ALT (6 h) of the same compound?
**A.** 44.2 IU/L

**Q.** What about the AST (6 h) of the same compound?
**A.** 75.8 IU/L

**Q.** And the BUN (6 h)?
**A.** 10.4 mg/dL

**Q.** And the CRE (6 h)?
**A.** 0.1 mg/dL

**Q.** What about the Ca (6 h) of the same compound?
**A.** 10.6 mg/dL

**Q.** And the Cl (6 h)?
**A.** 106.4 meq/L

**Q.** And the DBIL (6 h)?
**A.** 0 mg/dL

**Q.** And the GLC (6 h)?
**A.** 185.2 mg/dL

**Q.** What about the IP (6 h) of the same compound?
**A.** 9.3 mg/dL

**Q.** And the K (6 h)?
**A.** 4.3 meq/L

**Q.** What about the LDH (6 h) of the same compound?
**A.** 182.4 IU/L

**Q.** What about the Na (6 h) of the same compound?
**A.** 141 meq/L

**Q.** What about the PL (6 h) of the same compound?
**A.** 124.8 mg/dL

**Q.** What about the RALB (6 h) of the same compound?
**A.** 2.8 g/dL

**Q.** What about the TBIL (6 h) of the same compound?
**A.** 0.01 mg/dL

**Q.** What about the TC (6 h) of the same compound?
**A.** 71.2 mg/dL

**Q.** And the TG (6 h)?
**A.** 70.6 mg/dL

**Q.** And the TP (6 h)?
**A.** 5.2 g/dL

**Q.** And the gamma-GTP (6 h)?
**A.** 1 IU/L

**Q.** What about the TERMINAL_BW (9 h) of the same compound?
**A.** 199.1 g

**Q.** And the APTT (9 h)?
**A.** 21.1 s

**Q.** What about the Bas (9 h) of the same compound?
**A.** 0%

**Q.** And the Eos (9 h)?
**A.** 0.8%

**Q.** And the Fbg (9 h)?
**A.** 299.4 mg/dL

**Q.** What about the Hb (9 h) of the same compound?
**A.** 13.2 g/dL

**Q.** What about the Ht (9 h) of the same compound?
**A.** 37.7%

**Q.** What about the Lym (9 h) of the same compound?
**A.** 75.6%

**Q.** What about the MCH (9 h) of the same compound?
**A.** 21.3 pg

**Q.** What about the MCHC (9 h) of the same compound?
**A.** 35.2%

**Q.** And the MCV (9 h)?
**A.** 60.6 fL

**Q.** What about the Mono (9 h) of the same compound?
**A.** 1.6%

**Q.** What about the Neu (9 h) of the same compound?
**A.** 21%

**Q.** And the PT (9 h)?
**A.** 16.4 s

**Q.** And the Plat (9 h)?
**A.** 124.5 x10_4/uL

**Q.** What about the RBC (9 h) of the same compound?
**A.** 622.2 x10_4/ul

**Q.** And the Ret (9 h)?
**A.** 7.7%

**Q.** And the WBC (9 h)?
**A.** 78.9 x10_2/uL

**Q.** What about the A/G (9 h) of the same compound?
**A.** 1.2

**Q.** What about the ALP (9 h) of the same compound?
**A.** 1423.4 IU/L

**Q.** What about the ALT (9 h) of the same compound?
**A.** 38.4 IU/L

**Q.** What about the AST (9 h) of the same compound?
**A.** 71.2 IU/L

**Q.** And the BUN (9 h)?
**A.** 10.8 mg/dL

**Q.** What about the CRE (9 h) of the same compound?
**A.** 0.1 mg/dL

**Q.** What about the Ca (9 h) of the same compound?
**A.** 10.5 mg/dL

**Q.** What about the Cl (9 h) of the same compound?
**A.** 106.4 meq/L

**Q.** And the DBIL (9 h)?
**A.** 0.002 mg/dL

**Q.** And the GLC (9 h)?
**A.** 178.2 mg/dL

**Q.** And the IP (9 h)?
**A.** 9.6 mg/dL

**Q.** What about the K (9 h) of the same compound?
**A.** 4.5 meq/L

**Q.** What about the LDH (9 h) of the same compound?
**A.** 154.8 IU/L

**Q.** And the Na (9 h)?
**A.** 140.6 meq/L

**Q.** And the PL (9 h)?
**A.** 133.2 mg/dL

**Q.** What about the RALB (9 h) of the same compound?
**A.** 3 g/dL

**Q.** What about the TBIL (9 h) of the same compound?
**A.** 0.01 mg/dL

**Q.** What about the TC (9 h) of the same compound?
**A.** 76.8 mg/dL

**Q.** And the TG (9 h)?
**A.** 65 mg/dL

**Q.** What about the TP (9 h) of the same compound?
**A.** 5.5 g/dL

**Q.** What about the gamma-GTP (9 h) of the same compound?
**A.** 1 IU/L

**Q.** And the TERMINAL_BW (24 h)?
**A.** 223.9 g

**Q.** What about the APTT (24 h) of the same compound?
**A.** 20.3 s

**Q.** What about the Bas (24 h) of the same compound?
**A.** 0%

**Q.** And the Eos (24 h)?
**A.** 0.8%

**Q.** And the Fbg (24 h)?
**A.** 307.8 mg/dL

**Q.** What about the Hb (24 h) of the same compound?
**A.** 14 g/dL

**Q.** And the Ht (24 h)?
**A.** 39.8%

**Q.** And the Lym (24 h)?
**A.** 79.8%

**Q.** What about the MCH (24 h) of the same compound?
**A.** 21.7 pg

**Q.** And the MCHC (24 h)?
**A.** 35.2%

**Q.** And the MCV (24 h)?
**A.** 61.9 fL

**Q.** What about the Mono (24 h) of the same compound?
**A.** 2.4%

**Q.** And the Neu (24 h)?
**A.** 16.4%

**Q.** And the PT (24 h)?
**A.** 15.6 s

**Q.** What about the Plat (24 h) of the same compound?
**A.** 96.9 x10_4/uL

**Q.** And the RBC (24 h)?
**A.** 643.8 x10_4/ul

**Q.** What about the Ret (24 h) of the same compound?
**A.** 7.2%

**Q.** What about the WBC (24 h) of the same compound?
**A.** 79.8 x10_2/uL

**Q.** What about the A/G (24 h) of the same compound?
**A.** 1.3

**Q.** And the ALP (24 h)?
**A.** 2168.2 IU/L

**Q.** What about the ALT (24 h) of the same compound?
**A.** 55.2 IU/L

**Q.** What about the AST (24 h) of the same compound?
**A.** 75 IU/L

**Q.** What about the BUN (24 h) of the same compound?
**A.** 15.6 mg/dL

**Q.** And the CRE (24 h)?
**A.** 0.1 mg/dL

**Q.** What about the Ca (24 h) of the same compound?
**A.** 11 mg/dL

**Q.** And the Cl (24 h)?
**A.** 106.2 meq/L

**Q.** What about the DBIL (24 h) of the same compound?
**A.** 0 mg/dL

**Q.** What about the GLC (24 h) of the same compound?
**A.** 180.6 mg/dL

**Q.** And the IP (24 h)?
**A.** 6.9 mg/dL

**Q.** What about the K (24 h) of the same compound?
**A.** 4.2 meq/L

**Q.** What about the LDH (24 h) of the same compound?
**A.** 175 IU/L

**Q.** What about the Na (24 h) of the same compound?
**A.** 142.2 meq/L

**Q.** What about the PL (24 h) of the same compound?
**A.** 169.8 mg/dL

**Q.** What about the RALB (24 h) of the same compound?
**A.** 3.1 g/dL

**Q.** What about the TBIL (24 h) of the same compound?
**A.** 0.01 mg/dL

**Q.** What about the TC (24 h) of the same compound?
**A.** 85.8 mg/dL

**Q.** And the TG (24 h)?
**A.** 145.4 mg/dL

**Q.** What about the TP (24 h) of the same compound?
**A.** 5.5 g/dL

**Q.** What about the gamma-GTP (24 h) of the same compound?
**A.** 1 IU/L
